Results published in patent publication US20240174659A1, “COMPOUNDS AND METHODS FOR YAP/TEAD MODULATION AND INDICATIONS THEREFOR” (Opna Bio SA, priority 2021, published 2024).

System: TEAD-dependent transcription
Assay: Inhibitor activity against TEAD-dependent transcription in a cell-based reporter assay (MSTO-211H+12XGTIIC luciferase)
Conditions: Homo sapiens; MSTO-211H+12XGTIIC cells, 24 hours incubation, luciferase luminescence normalized to cell viability fluorescence, geometric mean; read-out: MSTO-211H GMean IC50 (uM) Cell Assay Reporter Cell Variant: TEAD
Summary of the method: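 MSTO-211H mesothelioma cells stably carrying a 12xGTIIC TEAD-response-element luciferase reporter, treated with serial compound dilutions for 24 h at 37 °C. Luminescence normalized to CellTiter-Fluor viability signal; % inhibition versus DMSO and 20 μM K-975 controls, IC50 by nonlinear regression.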

C=CC(=O)N1CCc2ccc(OC3CCC4(CC3)CC4)cc2C1 [P-0077, 1-(7-(spiro[2.5]octan-6-yloxy)-3,4-dihydroisoquinolin-2(1H)-yl)prop-2-en-1-one] and C=CC(=O)N1CCc2ccc(OC3CCC(C)(C)CC3)cc2C1 [P-0082, 1-(7-((4,4-dimethylcyclohexyl)oxy)-3,4-dihydroisoquinolin-2(1H)-yl)prop-2-en-1-one] fall in the same range of IC50: 0.001 to 0.5 µM for the first, 0.001 to 0.5 µM for the second.

First: C=CC(=O)N1CCc2ccc(OCc3ccc(C(F)(F)F)cc3)cc2C1 [P-0078, 1-(7-((4-(trifluoromethyl)benzyl)oxy)-3,4-dihydroisoquinolin-2(1H)-yl)prop-2-en-1-one]
Second: C=CC(=O)N1CCc2ccc(OCc3cccc(C(F)(F)F)c3)cc2C1 [P-0083, 1-(7-((3-(trifluoromethyl)benzyl)oxy)-3,4-dihydroisoquinolin-2(1H)-yl)prop-2-en-1-one]
The IC50 of the first is higher: 0.5 to 20 µM for the first, 0.001 to 0.5 µM for the second.

Compared with C=CC(=O)N1CCc2ccc(OCc3ccc(C(F)(F)F)nc3)cc2C1 [P-0079, 1-(7-((6-(trifluoromethyl)pyridin-3-yl)methoxy)-3,4-dihydroisoquinolin-2(1H)-yl)prop-2-en-1-one], C=CC(=O)N1CCc2ccc(Cc3ccc(C(F)(F)F)nc3)cc2C1 [P-0104, 1-(7-((6-(trifluoromethyl)pyridin-3-yl)methyl)-3,4-dihydroisoquinolin-2(1H)-yl)prop-2-en-1-one] is lower in IC50: over 20 µM for the first, 0.001 to 0.5 µM for the second.

C=CC(=O)N1CCc2ccc(OCC3CCC(F)(F)CC3)cc2C1 [P-0080, 1-(7-((4,4-difluorocyclohexyl)methoxy)-3,4-dihydroisoquinolin-2(1H)-yl)prop-2-en-1-one] and C=CC(=O)N1CCc2ccc(OCC3CC(F)(F)C3)cc2C1 [P-0107, 1-(7-((3,3-difluorocyclobutyl)methoxy)-3,4-dihydroisoquinolin-2(1H)-yl)prop-2-en-1-one] fall in the same range of IC50: 0.001 to 0.5 µM for the first, 0.001 to 0.5 µM for the second.

First: C=CC(=O)N1CCc2ccc(OCc3cc(C)on3)cc2C1 [P-0081, 1-(7-((5-methylisoxazol-3-yl)methoxy)-3,4-dihydroisoquinolin-2(1H)-yl)prop-2-en-1-one]
Second: C=CC(=O)N1CCc2ccc(OCc3cccc(F)c3)cc2C1 [P-0091, 1-(7-((3-fluorobenzyl)oxy)-3,4-dihydroisoquinolin-2(1H)-yl)prop-2-en-1-one]
The IC50 of the first is higher: over 20 µM for the first, 0.001 to 0.5 µM for the second. The second is the more potent here.

C=CC(=O)N1CCc2ccc(OC3CCS(=O)(=O)CC3)cc2C1 [P-0084, 1-(7-((1,1-dioxidotetrahydro-2H-thiopyran-4-yl)oxy)-3,4-dihydroisoquinolin-2(1H)-yl)prop-2-en-1-one] and C=CC(=O)N1CCc2ccc(OC3CCC(F)(F)C3)cc2C1 (centres unmarked) [P-0085, 1-(7-((3,3-difluorocyclopentyl)oxy)-3,4-dihydroisoquinolin-2(1H)-yl)prop-2-en-1-one] fall in the same range of IC50: 0.001 to 0.5 µM for the first, 0.001 to 0.5 µM for the second.

C=CC(=O)N1CCc2ccc(O[C@@H]3C[C@@H]4[C@H](C3)C4(F)F)cc2C1 [P-0086, 1-(7-(((1R,3s,5S)-6,6-difluorobicyclo[3.1.0]hexan-3-yl)oxy)-3,4-dihydroisoquinolin-2(1H)-yl)prop-2-en-1-one] and C=CC(=O)N1CCc2ccc(OCC3CC4C(C3)C4(F)F)cc2C1 (centres unmarked) [P-0111, 1-(7-((6,6-difluorobicyclo[3.1.0]hexan-3-yl)methoxy)-3,4-dihydroisoquinolin-2(1H)-yl)prop-2-en-1-one] fall in the same range of IC50: 0.001 to 0.5 µM for the first, 0.001 to 0.5 µM for the second.

First: C=CC(=O)N1CCc2ccc(NC3CC4C(C3)C4(F)F)cc2C1 (centres unmarked) [P-0087, 1-(7-((6,6-difluorobicyclo[3.1.0]hexan-3-yl)amino)-3,4-dihydroisoquinolin-2(1H)-yl)prop-2-en-1-one]
Second: C=CC(=O)N1CCc2ccc(NC3CCC4(CC3)CC4)cc2C1 [P-0097, 1-(7-(spiro[2.5]octan-6-ylamino)-3,4-dihydroisoquinolin-2(1H)-yl)prop-2-en-1-one]
The IC50 of the first is lower: 0.001 to 0.5 µM for the first, 0.5 to 20 µM for the second. The first is the more potent here.

First: C=CC(=O)N1CCc2ccc(OCc3ccccc3C(F)(F)F)cc2C1 [P-0088, 1-(7-((2-(trifluoromethyl)benzyl)oxy)-3,4-dihydroisoquinolin-2(1H)-yl)prop-2-en-1-one]
Second: C=CC(=O)N1CCc2ccc(OCc3ccccc3F)cc2C1 [P-0096, 1-(7-((2-fluorobenzyl)oxy)-3,4-dihydroisoquinolin-2(1H)-yl)prop-2-en-1-one]
The IC50 of the first is lower: 0.001 to 0.5 µM for the first, over 20 µM for the second.

C=CC(=O)N1CCc2ccc(NCc3ccccc3)cc2C1 [P-0089, 1-(7-(benzylamino)-3,4-dihydroisoquinolin-2(1H)-yl)prop-2-en-1-one] and C=CC(=O)N1CCc2ccc(NCc3cccc(F)c3)cc2C1 [P-0090, 1-(7-((3-fluorobenzyl)amino)-3,4-dihydroisoquinolin-2(1H)-yl)prop-2-en-1-one] fall in the same range of IC50: 0.001 to 0.5 µM for the first, 0.001 to 0.5 µM for the second.

C=CC(=O)N1CCc2ccc(Oc3cccc(C#N)c3)cc2C1 [P-0092, 3-((2-acryloyl-1,2,3,4-tetrahydroisoquinolin-7-yl)oxy)benzonitrile] and C=CC(=O)N1CCc2ccc(Oc3ccc(C#N)cc3)cc2C1 [P-0115, 4-((2-acryloyl-1,2,3,4-tetrahydroisoquinolin-7-yl)oxy)benzonitrile] fall in the same range of IC50: 0.001 to 0.5 µM for the first, 0.001 to 0.5 µM for the second.

C=CC(=O)N1Cc2cc(Oc3ccc(C(F)(F)F)nc3)ccc2C(C)C1 (centres unmarked) [P-0093, 1-(4-methyl-7-((6-(trifluoromethyl)pyridin-3-yl)oxy)-3,4-dihydroisoquinolin-2(1H)-yl)prop-2-en-1-one] and C=CC(=O)N1CCc2c(F)cc(Oc3ccc(C(F)(F)F)nc3)cc2C1 [P-0101, 1-(5-fluoro-7-((6-(trifluoromethyl)pyridin-3-yl)oxy)-3,4-dihydroisoquinolin-2(1H)-yl)prop-2-en-1-one] fall in the same range of IC50: 0.001 to 0.5 µM for the first, 0.001 to 0.5 µM for the second.

C=CC(=O)N1Cc2cc(OC3CCC(F)(F)CC3)ccc2C(C)C1 (centres unmarked) [P-0094, 1-(7-((4,4-difluorocyclohexyl)oxy)-4-methyl-3,4-dihydroisoquinolin-2(1H)-yl)prop-2-en-1-one] and C=CC(=O)N1CCc2c(F)cc(OC3CCC(F)(F)CC3)cc2C1 [P-0095, 1-(7-((4,4-difluorocyclohexyl)oxy)-5-fluoro-3,4-dihydroisoquinolin-2(1H)-yl)prop-2-en-1-one] fall in the same range of IC50: 0.001 to 0.5 µM for the first, 0.001 to 0.5 µM for the second.

C=CC(=O)N1CCc2cc(F)c(Oc3ccc(C(F)(F)F)c(F)c3)cc2C1 [P-0098, 1-(6-fluoro-7-(3-fluoro-4-(trifluoromethyl)phenoxy)-3,4-dihydroisoquinolin-2(1H)-yl)prop-2-en-1-one] and C=CC(=O)N1CCc2cc(C)c(Oc3ccc(C(F)(F)F)c(F)c3)cc2C1 [P-0099, 1-(7-(3-fluoro-4-(trifluoromethyl)phenoxy)-6-methyl-3,4-dihydroisoquinolin-2(1H)-yl)prop-2-en-1-one] fall in the same range of IC50: 0.001 to 0.5 µM for the first, 0.001 to 0.5 µM for the second.

C=CC(=O)N1CCc2ccc(NCC3CCC(F)(F)CC3)cc2C1 [P-0100, 1-(7-(((4,4-difluorocyclohexyl)methyl)ami-no)-3,4-dihydroisoquinolin-2(1H)-yl)prop-2-en-1-one] and C=CC(=O)N1CCc2cc(F)c(OC3CCC(F)(F)CC3)cc2C1 [P-0102, 1-(7-((4,4-difluorocyclohexyl)oxy)-6-fluoro-3,4-dihydroisoquinolin-2(1H)-yl)prop-2-en-1-one] fall in the same range of IC50: 0.001 to 0.5 µM for the first, 0.001 to 0.5 µM for the second.

C=CC(=O)N1CCc2cc(F)c(Oc3ccc(C(F)(F)F)cc3)cc2C1 [P-0103, 1-(6-fluoro-7-(4-(trifluoromethyl)phenoxy)-3,4-dihydroisoquinolin-2(1H)-yl)prop-2-en-1-one] and C=CC(=O)N1CCc2c(F)cc(Oc3ccc(C(F)(F)F)cc3)cc2C1 [P-0113, 1-(5-fluoro-7-(4-(trifluoromethyl)phenoxy)-3,4-dihydroisoquinolin-2(1H)-yl)prop-2-en-1-one] fall in the same range of IC50: 0.001 to 0.5 µM for the first, 0.001 to 0.5 µM for the second.

First: C=CC(=O)N1CCc2ccc(C(F)c3ccc(C(F)(F)F)nc3)cc2C1 (centres unmarked) [P-0105, 1-(7-(fluoro(6-(trifluoromethyl)pyridin-3-yl)methyl)-3,4-dihydroisoquinolin-2(1H)-yl)prop-2-en-1-one]
Second: C=CC(=O)N1CCc2ccc(C(F)(F)c3ccc(C(F)(F)F)nc3)cc2C1 [P-0106, 1-(7-(difluoro(6-(trifluoromethyl)pyridin-3-yl)methyl)-3,4-dihydroisoquinolin-2(1H)-yl)prop-2-en-1-one]
The IC50 of the first is higher: 0.5 to 20 µM for the first, 0.001 to 0.5 µM for the second.

C=CC(=O)N1CCc2ccc(OCC34CC5CC(CC(C5)C3)C4)cc2C1 [P-0108, 1-(7-(((3r,5r,7r)-adamantan-1-yl)methoxy)-3,4-dihydroisoquinolin-2(1H)-yl)prop-2-en-1-one] and C=CC(=O)N1CCc2ccc(OCC34CCC(CC3)C4)cc2C1 [P-0110, 1-(7-(bicyclo[2.2.1]heptan-1-ylmethoxy)-3,4-dihydroisoquinolin-2(1H)-yl)prop-2-en-1-one] fall in the same range of IC50: 0.001 to 0.5 µM for the first, 0.001 to 0.5 µM for the second.

Compared with C=CC(=O)N1CCc2ccc(Oc3ccc(C4(C)CC4)cc3)cc2C1 [P-0109, 1-(7-(4-(1-methylcyclopropyl)phenoxy)-3,4-dihydroisoquinolin-2(1H)-yl)prop-2-en-1-one], CN(C)C/C=C/C(=O)N1CCc2ccc(Oc3ccc(C(F)(F)F)cc3)cc2C1 [P-0116, (E)-4-(dimethylamino)-1-(7-(4-(trifluoromethyl)phenoxy)-3,4-dihydroisoquinolin-2(1H)-yl)but-2-en-1-one] is higher in IC50: 0.001 to 0.5 µM for the first, 0.5 to 20 µM for the second.

First: C=CC(=O)N1Cc2cc(Oc3ccc(C(F)(F)F)cc3)ccc2C[C@H]1C(=O)OC [P-0112, methyl (S)-2-acryloyl-7-(4-(trifluoromethyl)phenoxy)-1,2,3,4-tetrahydroisoquinoline-3-carboxylate]
Second: C=CS(=O)(=O)N1CCc2ccc(Oc3ccc(C(F)(F)F)cc3)cc2C1 [P-0114, 7-(4-(trifluoromethyl)phenoxy)-2-(vinylsulfonyl)-1,2,3,4-tetrahydroisoquinoline]
The IC50 of the first is lower: 0.001 to 0.5 µM for the first, 0.5 to 20 µM for the second. The first is the more potent here.

O=C(/C=C/CN1CCC1)N1CCc2ccc(Oc3ccc(C(F)(F)F)cc3)cc2C1 [P-0117, (E)-4-(azetidin-1-yl)-1-(7-(4-(trifluoromethyl)phenoxy)-3,4-dihydroisoquinolin-2(1H)-yl)but-2-en-1-one] gave an IC50 of 0.5 to 20 µM.
